From publication PMC11876601 (Molecular Systems Biology, 2025)
Where “and” joins values, the source holds several entries; their conditions need not be identical. Equal entries are not always repeated. Where two headings read alike, the source gives them in different places.

Columns and labels:
PANC-1 cells = assay: Cell proliferation assay, GEM + ATR inhibitor (Incucyte confluence, 72 h); conditions: for EC50: Homo sapiens; for Curve bottom / Curve top: PANC-1, plateau of fitted curve, ratio drug/vehicle confluence;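 as to EC50: in combination experiments GEM is titrated while ATRi is held at a fixed sub-EC50 dose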;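 as to all read-outs here: PANC-1 confluence at 72 h taken as raw values, not normalized to starting confluence, with each experiment run in triplicate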
Description: (§1) Cells were seeded at 5000 cells/well into 96-well flat bottom plates (Eppendorf) and allowed to attach overnight. […] Cells were incubated for 72 h at 37 °C and 5% CO2. Cell confluence readouts at 72 h were either normalized to their initial confluence using the Incucyte software (AsPC-1) or used without prior normalization (all others). […] Each experiment was performed in triplicates, the data was plotted as mean ± standard deviation (s.d.).

Suit2-07 cells = assay: as above; assay type: cell-based, human; conditions: Suit2-07; for EC50: Homo sapiens, 72 h; for Response: R1; for Curve bottom / Curve top: plateau of fitted curve, ratio drug/vehicle confluence;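 as to all read-outs here: Suit2-07 cells grown in 96-well plates at 37 °C, 5% CO2, raw 72 h confluence taken without normalizing to starting confluence, each experiment done in triplicate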
Description: as §1

MiaPaCa-2 = assay: cells; parameters: ATPlite luminescence viability of PDAC cell lines, 11-dose single-agent curves, 4-parameter fit; conditions: Homo sapiens, MIA PaCa-2, 72 h, read-out: EC50 [nM]
Summary of the method: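 Drug-combination screening used cells plated at 1000 to 5000 per well one day before treatment. Final DMSO was 0.2%. Each plate held untreated negative-control wells and 5 µM staurosporine positive-control wells.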

[1] = experiment ATRi (ATR inhibitor alone)

SMILES: CNCc1ccc(-c2cc(-c3nc(-c4ccc(S(=O)(=O)C(C)C)cc4)cnc3N)on2)cc1 [Berzosertib]
- EC50 (PANC-1 cells; PANC-1, 72 h, read-out: EC50 mean [nM], PANC-1, experiment ATRi (ATR inhibitor alone), mean of replicates): 22200 nM
- EC50 (PANC-1 cells; PANC-1, PANC-1, experiment ATRi (ATR inhibitor alone), replicates R1-R3): 31800 nM
- EC50 (PANC-1 cells; PANC-1, PANC-1, experiment GEM+ATRi_dose1, replicates R1-R3): 4.75 nM
- EC50 (PANC-1 cells; PANC-1, PANC-1, experiment GEM+ATRi_dose2, replicates R1-R3): 6.05 nM
- EC50 (PANC-1 cells; PANC-1, PANC-1, experiment GEM+ATRi_dose3, replicates R1-R3): 3.25 nM
- EC50 (PANC-1 cells; PANC-1, read-out: EC50 mean [nM], PANC-1, experiment ATRi (ATR inhibitor alone), mean of replicates): 22200 nM
- EC50 (PANC-1 cells; PANC-1, read-out: EC50 mean [nM], PANC-1, experiment GEM+ATRi_dose1, mean of replicates): 4.43 nM
- EC50 (PANC-1 cells; PANC-1, read-out: EC50 mean [nM], PANC-1, experiment GEM+ATRi_dose2, mean of replicates): 5.92 nM
- EC50 (PANC-1 cells; PANC-1, read-out: EC50 mean [nM], PANC-1, experiment GEM+ATRi_dose3, mean of replicates): 4.05 nM
- EC50 (PANC-1 cells; PANC-1, read-out: pEC50, PANC-1 (converted), experiment ATRi (ATR inhibitor alone), -log10 of EC50 [M]): 31600 nM
- EC50 (PANC-1 cells; PANC-1, read-out: pEC50, PANC-1 (converted), experiment GEM+ATRi_dose1, replicates R1-R3, -log10 of EC50 [M]): 4.79 nM
- EC50 (PANC-1 cells; PANC-1, read-out: pEC50, PANC-1 (converted), experiment GEM+ATRi_dose2, replicates R1-R3, -log10 of EC50 [M]): 6.03 nM
- EC50 (PANC-1 cells; PANC-1, read-out: pEC50, PANC-1 (converted), experiment GEM+ATRi_dose3, replicates R1-R3, -log10 of EC50 [M]): 3.24 nM
- Curve bottom (PANC-1 cells; [1]): 1.01 and 0.99
- Curve top (PANC-1 cells; experiment GEM+ATRi_dose1): 0.60 and 0.57
- Curve top (PANC-1 cells; experiment GEM+ATRi_dose2): 0.57 and 0.55
- Curve bottom (PANC-1 cells; experiment GEM+ATRi_dose3): 0.93 and 0.91
- Curve top (PANC-1 cells; experiment GEM+ATRi_dose3): 0.55 and 0.54
- EC50 (Suit2-07 cells; experiment ATRi (ATR inhibitor alone), -log10 of EC50 [M], read-out: pEC50 (converted)): 8.32e-07 M
- EC50 (Suit2-07 cells; experiment ATRi (ATR inhibitor alone), mean (one replicate), read-out: EC50 mean): 8.26e-07 M
- EC50 (Suit2-07 cells; experiment ATRi (ATR inhibitor alone), replicate R1, read-out: EC50): 8.26e-07 M
- Response (Suit2-07 cells; GEM+ATRi_dose1, GEM 0 nM + ATRi 10 nM, in % (unit assumed)): 98.77
- Response (Suit2-07 cells; GEM+ATRi_dose1, GEM 1 nM + ATRi 10 nM, in % (unit assumed)): 98.71
- Response (Suit2-07 cells; GEM+ATRi_dose1, GEM 3 nM + ATRi 10 nM, in % (unit assumed)): 96.04
- Response (Suit2-07 cells; GEM+ATRi_dose1, GEM 10 nM + ATRi 10 nM, in % (unit assumed)): 36.30
- Response (Suit2-07 cells; GEM+ATRi_dose1, GEM 30 nM + ATRi 10 nM, in % (unit assumed)): 15.43
- Response (Suit2-07 cells; GEM+ATRi_dose1, GEM 100 nM + ATRi 10 nM, in % (unit assumed)): 14.13
- Response (Suit2-07 cells; GEM+ATRi_dose1, GEM 300 nM + ATRi 10 nM, in % (unit assumed)): 12.00
- Response (Suit2-07 cells; GEM+ATRi_dose1, GEM 1000 nM + ATRi 10 nM, in % (unit assumed)): 12.45
- Response (Suit2-07 cells; GEM+ATRi_dose1, GEM 3000 nM + ATRi 10 nM, in % (unit assumed)): 11.51
- Response (Suit2-07 cells; GEM+ATRi_dose2, GEM 0 nM + ATRi 3 nM, in % (unit assumed)): 99.37
- Response (Suit2-07 cells; GEM+ATRi_dose2, GEM 1 nM + ATRi 3 nM, in % (unit assumed)): 98.07
- Response (Suit2-07 cells; GEM+ATRi_dose2, GEM 3 nM + ATRi 3 nM, in % (unit assumed)): 44.64
- Response (Suit2-07 cells; GEM+ATRi_dose2, GEM 10 nM + ATRi 3 nM, in % (unit assumed)): 20.67
- Response (Suit2-07 cells; GEM+ATRi_dose2, GEM 30 nM + ATRi 3 nM, in % (unit assumed)): 15.78
- Response (Suit2-07 cells; GEM+ATRi_dose2, GEM 100 nM + ATRi 3 nM, in % (unit assumed)): 12.95
- Response (Suit2-07 cells; GEM+ATRi_dose2, GEM 300 nM + ATRi 3 nM, in % (unit assumed)): 13.27
- Response (Suit2-07 cells; GEM+ATRi_dose2, GEM 1000 nM + ATRi 3 nM, in % (unit assumed)): 13.27
- Response (Suit2-07 cells; GEM+ATRi_dose2, GEM 3000 nM + ATRi 3 nM, in % (unit assumed)): 11.05
- Response (Suit2-07 cells; GEM+ATRi_dose3, GEM 0 nM + ATRi 30 nM, in % (unit assumed)): 92.60
- Response (Suit2-07 cells; GEM+ATRi_dose3, GEM 1 nM + ATRi 30 nM, in % (unit assumed)): 79.33
- Response (Suit2-07 cells; GEM+ATRi_dose3, GEM 3 nM + ATRi 30 nM, in % (unit assumed)): 33.65
- Response (Suit2-07 cells; GEM+ATRi_dose3, GEM 10 nM + ATRi 30 nM, in % (unit assumed)): 15.80
- Response (Suit2-07 cells; GEM+ATRi_dose3, GEM 30 nM + ATRi 30 nM): 15.08
- Response (Suit2-07 cells; GEM+ATRi_dose3, GEM 100 nM + ATRi 30 nM, in % (unit assumed)): 13.63
- Response (Suit2-07 cells; GEM+ATRi_dose3, GEM 300 nM + ATRi 30 nM, in % (unit assumed)): 12.25
- Response (Suit2-07 cells; GEM+ATRi_dose3, GEM 1000 nM + ATRi 30 nM, in % (unit assumed)): 9.74
- Response (Suit2-07 cells; GEM+ATRi_dose3, GEM 3000 nM + ATRi 30 nM, in % (unit assumed)): 10.10
- Curve bottom (Suit2-07 cells; [1]): 1.01
- Curve top (Suit2-07 cells; [1]): 0.09
- Response (Suit2-07 cells; experiment ATRi, ATRi 3 nM, GEM 0 nM, in % (unit assumed)): 98.72
- Response (Suit2-07 cells; experiment ATRi, ATRi 10 nM, GEM 0 nM, in % (unit assumed)): 98.54
- Response (Suit2-07 cells; experiment ATRi, ATRi 30 nM, GEM 0 nM, in % (unit assumed)): 98.42
- Response (Suit2-07 cells; experiment ATRi, ATRi 100 nM, GEM 0 nM, in % (unit assumed)): 98.94
- Response (Suit2-07 cells; experiment ATRi, ATRi 300 nM, GEM 0 nM, in % (unit assumed)): 89.08
- Response (Suit2-07 cells; experiment ATRi, ATRi 1000 nM, GEM 0 nM, in % (unit assumed)): 45.00
- Response (Suit2-07 cells; experiment ATRi, ATRi 3000 nM, GEM 0 nM, in % (unit assumed)): 16.95
- Response (Suit2-07 cells; experiment ATRi, ATRi 10000 nM, GEM 0 nM, in % (unit assumed)): 8.62
- Curve bottom (Suit2-07 cells; experiment GEM+ATRi_dose1): 1.01
- Curve top (Suit2-07 cells; experiment GEM+ATRi_dose1): 0.13
- Curve bottom (Suit2-07 cells; experiment GEM+ATRi_dose2): 1.03
- Curve top (Suit2-07 cells; experiment GEM+ATRi_dose2): 0.15
- Curve bottom (Suit2-07 cells; experiment GEM+ATRi_dose3): 0.95
- Curve top (Suit2-07 cells; experiment GEM+ATRi_dose3): 0.13

SMILES: CCN1CCN(Cc2ccc(Nc3ncc(F)c(-c4cc(F)c5nc(C)n(C(C)C)c5c4)n3)nc2)CC1 [Abemaciclib]
- EC50 (MiaPaCa-2): 82.2 nM
